US20110300229A1, “TREATING OR PREVENTING ROTAVIRUS INFECTION” (FONTERRA CO-OPERATIVE GROUP LIMITED, priority 2007, published 2011)
“And” between values parts separate entries of the source, which are not always exact repeats. Equal values may be shown once. Marks after values point to notes of the source that are not given here.

System: human rotavirus strain Wa
Experiment: Rotavirus infection assay in HT29 cells (crystal violet, % uninfected cells)
Assay type: cell-based
Conditions: for activity in preventing virus infection of the cells: over a range of concentrations
Experimental: The HT29 cell line was used to propagate the human rotavirus strain Wa (neuraminidase resistant) in the presence of 1 μg/ml trypsin in Dulbecco's minimal essential medium (DMEM) supplemented with 10% foetal calf serum and penicillin/streptomycin (100 μg/ml/100 units/ml). Rotavirus was harvested by freeze thawing twice, spun at 750 g to remove cell debris and stored at −80° C. The rotavirus was assayed and found to contain […] plaque forming units (pfu)/ml.
The infection assay used was based on a number of published assays (Scott et al 1979; Smith et al 1979; Guarino et al 1996; Superb et al 2001). Confluent HT29 cells grown in DMEM (seeded at 3×10^5/ml in 96 well plates) were washed twice in sterile PBS. Doubling dilutions of each of the products to be screened (initial concentration 5 mg/ml) were made in the plate in 50 μl volumes of DMEM. Virus was added (10^4 pfu/well) to all wells except the cells only control and plates were then incubated for two hours in 5% CO2 at 37° C. Other controls included virus plus cells, lipids only, pure GM3 and pure GD3. Following the two-hour incubation trypsin was added to all the wells containing virus at a concentration of 2 μg/ml—this step cleaves VP4 to polypeptides VP8 and VP5 and is needed for the virion to penetrate into the cells' interior. Plates were incubated at 37° C. in 5% CO2 for seven days and were checked daily for cytopathic effect in the virus only control wells. Media was removed and plates washed in sterile PBS, air-dried and fixed with methanol for one minute. Plates were air dried and then stained with 100 μl/well of 1% crystal violet (351884W, BDH, England) for five minutes. Plates were washed four times with sterile water to remove excess stain. 100 μl of acetic acid per well was added to solubilise the stain and absorbance was read at a wavelength of 595 nm in a Biorad ELISA plate reader. Each sample was assayed on a minimum of three separate occasions and the percentage of uninfected cells calculated.
Statistical analysis was performed using an unpaired Student t test (InStat for MacIntosh) to compare the effect of the lipid products derived from bovine milk with the virus only control at the lowest dilution of the product.

Substance | Percentage of HT29 cells uninfected by rotavirus (7.8125 μg/ml) | Percentage of HT29 cells uninfected by rotavirus (15.625 μg/ml) | Percentage of HT29 cells uninfected by rotavirus (31.25 μg/ml) | Percentage of HT29 cells uninfected by rotavirus (125 μg/ml) | activity in preventing virus infection of the cells | Percentage of HT29 cells uninfected by rotavirus (62.5 μg/ml) | Percentage of HT29 cells uninfected by rotavirus (250 μg/ml, mean +/− spread)
Monosialoganglioside GM3 | 34 +/− 1.5% | 33 +/− 2.5% | 43+/−10% | 49 +/− 8*** % | showed activity over a range of concentrations |  | 
disialoganglioside GD3 |  | 31 +/− 1.5% | 40+/−3% and 40 +/− 2.5*** % |  | showed activity over a range of concentrations | 59 +/− 1.4*** % | 57 +/− 1*** %
